Data reported in US20080119515A1, “Heterocyclic Kinase Inhibitors: Methods of Use and Synthesis” (priority 2003, published 2008).

Molecular target: T1, ZAP-70 (Homo sapiens, UniProt P43403)
T1 sequence (P43403 1-619): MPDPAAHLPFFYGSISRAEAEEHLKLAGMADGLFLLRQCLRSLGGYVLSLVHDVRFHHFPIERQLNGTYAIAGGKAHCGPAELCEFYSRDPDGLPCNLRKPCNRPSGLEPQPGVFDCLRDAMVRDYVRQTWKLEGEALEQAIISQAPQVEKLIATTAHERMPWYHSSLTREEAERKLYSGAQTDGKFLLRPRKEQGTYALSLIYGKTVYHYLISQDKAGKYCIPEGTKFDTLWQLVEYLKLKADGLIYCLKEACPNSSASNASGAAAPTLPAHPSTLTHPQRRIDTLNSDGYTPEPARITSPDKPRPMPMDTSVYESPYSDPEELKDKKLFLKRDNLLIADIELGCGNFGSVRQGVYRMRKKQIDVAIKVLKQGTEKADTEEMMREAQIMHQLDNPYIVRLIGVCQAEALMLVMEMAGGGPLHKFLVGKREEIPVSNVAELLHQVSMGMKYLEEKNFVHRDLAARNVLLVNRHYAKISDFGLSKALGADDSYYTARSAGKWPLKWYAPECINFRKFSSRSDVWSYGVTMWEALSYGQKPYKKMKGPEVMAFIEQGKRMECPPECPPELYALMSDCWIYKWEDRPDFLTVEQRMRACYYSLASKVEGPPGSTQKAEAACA
Experiment: DELFIA assay (ZAP-70 kinase, phosphorylation of biotinylated poly(glu,tyr))
Type: biochemical
Conditions: ZAP-70 DELFIA, class symbols; read-out: Activity (IC50 in vitro)
Procedure, shortened: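 3.1 nM ZAP-70 pre-incubated 10 min at room temperature with compound ([…]) and 62.5 nM biotinylated poly(glu,tyr) in 62.5 mM Mops pH 7.0, 12.5 mM MgCl2, 12.5% glycerol, 6.25% DMSO (pre-incubation concentrations); ATP added from 5 mM stock, 30 min reaction, EDTA stop. Phosphorylation read by DELFIA europium anti-phosphotyrosine fluorescence (340/615).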

IC50 [nM] | Compound
> 10000 | C[Si](C)(C)CCc1cc(C(=O)N2CCC[C@H]2CN2CCCC2)c2cc(-c3ccc4c(c3)OCO4)ccc2n1 [Compound 408]
> 10000 | COc1ccc(CCc2cc(C(=O)N3CCC[C@H]3CN3CCCC3)c3cc(-c4ccc5c(c4)OCO5)ccc3n2)cc1 [Compound 409]
< 1000 | O=C(c1cc(CCc2cccc(C(F)(F)F)c2)nc2ccc(-c3ccc4c(c3)OCO4)cc12)N1CCC[C@H]1CN1CCCC1 [Compound 410]
< 1000 | O=C(c1cc(NCc2ccc(C(F)(F)F)cc2)nc2ccc(-c3ccc4c(c3)OCO4)cc12)N1CC=C[C@H]1CN1CCCC1 [Compound 411]
> 10000 | CN(C)c1ccc(Nc2cc(/C=C/c3ccc(F)cc3)nc3ccc(-c4ccc5c(c4)OCO5)cc23)cc1 [Compound 412]
1000 to 10000 | Fc1ccc(/C=C/c2cc(Nc3ccc(N4CCNCC4)cc3)c3cc(-c4ccc5c(c4)OCO5)ccc3n2)cc1 [Compound 413]
> 10000 | Fc1ccc(CCc2cc(Nc3ccc(N4CCNCC4)cc3)c3cc(-c4ccc5c(c4)OCO5)ccc3n2)cc1 [Compound 414]
> 10000 | CN(C)c1ccc(Nc2cc(CCc3ccc(F)cc3)nc3ccc(-c4ccc5c(c4)OCO5)cc23)cc1 [Compound 415]
> 10000 | O=C(c1cc(NCc2ccc(C(F)(F)F)cc2)nc2ccc(-c3cccc(CO)c3)cc12)N1CCC[C@H]1CN1CCCC1 [Compound 416]
> 10000 | O=C(c1cc(NCc2ccc(C(F)(F)F)cc2)nc2ccc(-c3ccc(CO)cc3)cc12)N1CCC[C@H]1CN1CCCC1 [Compound 417]
> 10000 | COc1cc(-c2ccc3nc(NCc4ccc(C(F)(F)F)cc4)cc(C(=O)N4CCC[C@H]4CN4CCCC4)c3c2)ccc1O [Compound 418]
> 10000 | O=C(c1cc(NCc2ccc(C(F)(F)F)cc2)nc2ccc(-c3ccc(O)cc3)cc12)N1CCC[C@H]1CN1CCCC1 [Compound 419]
> 10000 | CN(C)C(=O)c1ccc(-c2ccc3nc(NCc4ccc(C(F)(F)F)cc4)cc(C(=O)N4CCC[C@H]4CN4CCCC4)c3c2)cc1 [Compound 420]
> 10000 | Cn1ccc2cc(-c3ccc4nc(NCc5ccc(C(F)(F)F)cc5)cc(C(=O)N5CCC[C@H]5CN5CCCC5)c4c3)ccc21 [Compound 421]
> 10000 | CC(C)(C)/C=C/c1ccc2nc(NCc3ccc(C(F)(F)F)cc3)cc(C(=O)N3CCC[C@H]3CN3CCCC3)c2c1 [Compound 422]
> 10000 | Nc1ccc(-c2ccc3nc(NCc4ccc(C(F)(F)F)cc4)cc(C(=O)N4CCC[C@H]4CN4CCCC4)c3c2)cc1 [Compound 424]
> 10000 | O=C(c1cc(NCc2ccc(C(F)(F)F)cc2)nc2ccc(-c3cccc([C@H]4CCNC[C@@H]4O)c3)cc12)N1CCC[C@H]1CN1CCCC1 [Compound 425]
> 10000 | O=C(c1cc(NCc2ccc(C(F)(F)F)cc2)nc2ccc(-c3ccc(C4CCNC[C@H]4O)cc3)cc12)N1CCC[C@H]1CN1CCCC1 (some centres unmarked) [Compound 426]
> 10000 | O=C(c1cc(NCc2ccc(C(F)(F)F)cc2)nc2ccc(-c3cccc([C@H]4CNCC[C@@H]4O)c3)cc12)N1CCC[C@H]1CN1CCCC1 [Compound 427]
< 1000 | O=C(c1cc(Nc2ccc(N3CCNCC3)cc2)nc2ccc(-c3ccc4c(c3)OCO4)cc12)N1CCCC1CN1CCCC1 (centres unmarked) [Compound 428]
< 1000 | CN1CCN(c2ccc(Nc3cc(C(=O)N4CCCC4CN4CCCC4)c4cc(-c5ccc6c(c5)OCO6)ccc4n3)cc2)CC1 (centres unmarked) [Compound 429]

IC50 [nM] | Compound
< 1000 | O=C(c1cc(Nc2cccc(C3CCNC[C@@H]3O)c2)nc2ccc(-c3ccc4c(c3)OCO4)cc12)N1CCCC1CN1CCCC1 (some centres unmarked) [Compound 430]
1000 to 10000 | O=C(Cc1cc(C(=O)N2CCC[C@H]2CN2CCCC2)c2cc(-c3ccc4c(c3)OCO4)ccc2n1)c1ccc(C(F)(F)F)cc1 [Compound 431]
< 1000 | Nc1cc(-c2ccc3c(c2)OCO3)cc2c(C(=O)N3CCC[C@H]3CN3CCCC3)cc(CCc3ccc(C(F)(F)F)cc3)nc12 [Compound 432]
< 1000 | Nc1cc(CCc2ccc(C(F)(F)F)cc2)cc2c(C(=O)N3CCC[C@H]3CN3CCCC3)cc(CCc3ccc(C(F)(F)F)cc3)nc12 [Compound 433]
< 1000 | O=C(c1cc(CCCc2ccccc2)nc2ccc(-c3ccc4c(c3)OCO4)cc12)N1CCC[C@H]1CN1CCCC1 [Compound 434]
< 1000 | O=C(c1cc(CCCCc2ccccc2)nc2ccc(-c3ccc4c(c3)OCO4)cc12)N1CCC[C@H]1CN1CCCC1 [Compound 435]
< 1000 | O=C(c1cc(CC(O)c2ccc(C(F)(F)F)cc2)nc2ccc(-c3ccc4c(c3)OCO4)cc12)N1CCC[C@H]1CN1CCCC1 (some centres unmarked) [Compound 436]
< 1000 | NCc1ccc(CNc2cc(C(=O)N3CCC[C@H]3CN3CCCC3)c3cc(-c4ccc5c(c4)OCO5)ccc3n2)cc1 [Compound 437]
< 1000 | CC1CN(c2ccc(Cc3cc(C(=O)N4CCCC4CN4CCCC4)c4cc(-c5ccc6c(c5)OCO6)ccc4n3)cc2)CCN1 (centres unmarked) [Compound 438]
< 1000 | O=C(c1cc(Cc2ccc(N3CCNCC3)cc2)nc2ccc(-c3ccc4c(c3)OCO4)cc12)N1CCCC1CN1CCCC1 (centres unmarked) [Compound 439]
< 1000 | O=C(c1cc(Cc2ccc(N3CCN(c4ccncc4)CC3)cc2)nc2ccc(-c3ccc4c(c3)OCO4)cc12)N1CCCC1CN1CCCC1 (centres unmarked) [Compound 440]
< 1000 | CN(C)CCCN1CCN(c2ccc(Cc3cc(C(=O)N4CCCC4CN4CCCC4)c4cc(-c5ccc6c(c5)OCO6)ccc4n3)cc2)CC1 (centres unmarked) [Compound 441]
< 1000 | CN(C)CCN1CCN(c2ccc(Cc3cc(C(=O)N4CCCC4CN4CCCC4)c4cc(-c5ccc6c(c5)OCO6)ccc4n3)cc2)CC1 (centres unmarked) [Compound 442]
< 1000 | O=C(c1cc(Cc2ccc(N3CCN(Cc4ccncc4)CC3)cc2)nc2ccc(-c3ccc4c(c3)OCO4)cc12)N1CCCC1CN1CCCC1 (centres unmarked) [Compound 443]
< 1000 | O=C(c1cc(Cc2ccc(N3CCN(CCc4ccncc4)CC3)cc2)nc2ccc(-c3ccc4c(c3)OCO4)cc12)N1CCCC1CN1CCCC1 (centres unmarked) [Compound 444]
< 1000 | O=C(c1cc(Cc2ccc(N3CCC4(CC3)CNC4)cc2)nc2ccc(-c3ccc4c(c3)OCO4)cc12)N1CCCC1CN1CCCC1 (centres unmarked) [Compound 445]
< 1000 | O=C(c1cc(Cc2ccc(N3CCC4(CCNC4)CC3)cc2)nc2ccc(-c3ccc4c(c3)OCO4)cc12)N1CCCC1CN1CCCC1 (centres unmarked) [Compound 446]
< 1000 | O=C(c1cc(Cc2ccc(N3CCC4(CCNCC4)CC3)cc2)nc2ccc(-c3ccc4c(c3)OCO4)cc12)N1CCCC1CN1CCCC1 (centres unmarked) [Compound 447]
< 1000 | CN1CCN(c2ccc(Nc3cc(Nc4ccc(N5CCN(C)CC5)cc4)c4cc(-c5ccc6c(c5)OCO6)ccc4n3)cc2)CC1 [Compound 448]
< 1000 | c1cc(N2CCNCC2)ccc1Nc1cc(Nc2ccc(N3CCNCC3)cc2)c2cc(-c3ccc4c(c3)OCO4)ccc2n1 [Compound 449]
